According to the NIST ThermoML archive (doi:10.1016/j.tca.2014.05.029):
± gives the expanded uncertainty stated by the source.

Tests used:
[1] = Crystal; DTA
[2] = Molar enthalpy of transition or fusion; details: Crystal; DSC
[3] = molar heat capacity at constant pressure; details: 101.33 kPa, Liquid, Small sample (50 mg) DSC

## OC[C@H]1O[C@@](CO)(O[C@H]2O[C@H](CO)[C@@H](O)[C@H](O)[C@H]2O)[C@@H](O)[C@@H]1O [D-sucrose]
[1]
  Normal melting temperature: 151.2 ± 0.5 °C
[2]
  Molar enthalpy of transition or fusion: 7.65 ± 0.239 kcal/mol
[3]; 331 K
  molar heat capacity at constant pressure: 746.98 ± 15 J/K/mol
[3]; 340 K
  molar heat capacity at constant pressure: 756.97 ± 15 J/K/mol
[3]; 350 K
  molar heat capacity at constant pressure: 768.07 ± 15 J/K/mol
[3]; 360 K
  molar heat capacity at constant pressure: 779.17 ± 16 J/K/mol
[3]; 370 K
  molar heat capacity at constant pressure: 790.27 ± 16 J/K/mol
[3]; 380 K
  molar heat capacity at constant pressure: 801.37 ± 16 J/K/mol
[3]; 390 K
  molar heat capacity at constant pressure: 812.47 ± 16 J/K/mol
[3]; 400 K
  molar heat capacity at constant pressure: 823.57 ± 16 J/K/mol
[3]; 410 K
  molar heat capacity at constant pressure: 834.67 ± 17 J/K/mol
[3]; 420 K
  molar heat capacity at constant pressure: 845.77 ± 17 J/K/mol
[3]; 424 K
  molar heat capacity at constant pressure: 850.21 ± 17 J/K/mol
[3]; 430 K
  molar heat capacity at constant pressure: 856.87 ± 17 J/K/mol
[3]; 440 K
  molar heat capacity at constant pressure: 867.97 ± 17 J/K/mol
[3]; 450 K
  molar heat capacity at constant pressure: 879.07 ± 18 J/K/mol
[3]; 460 K
  molar heat capacity at constant pressure: 890.17 ± 18 J/K/mol
[3]; 470 K
  molar heat capacity at constant pressure: 901.27 ± 18 J/K/mol
[3]; 480 K
  molar heat capacity at constant pressure: 912.37 ± 18 J/K/mol
[3]; 490 K
  molar heat capacity at constant pressure: 923.47 ± 18 J/K/mol
[3]; 500 K
  molar heat capacity at constant pressure: 934.57 ± 19 J/K/mol
[3]; 510 K
  molar heat capacity at constant pressure: 945.67 ± 19 J/K/mol
[3]; 520 K
  molar heat capacity at constant pressure: 956.77 ± 19 J/K/mol
[3]; 530 K
  molar heat capacity at constant pressure: 967.87 ± 19 J/K/mol
[3]; 540 K
  molar heat capacity at constant pressure: 978.97 ± 20 J/K/mol
[3]; 550 K
  molar heat capacity at constant pressure: 990.07 ± 20 J/K/mol
[3]; 560 K
  molar heat capacity at constant pressure: 1001.2 ± 20 J/K/mol
[3]; 570 K
  molar heat capacity at constant pressure: 1012.3 ± 20 J/K/mol
[3]; 580 K
  molar heat capacity at constant pressure: 1023.4 ± 20 J/K/mol
[3]; 590 K
  molar heat capacity at constant pressure: 1034.5 ± 21 J/K/mol
[3]; 600 K
  molar heat capacity at constant pressure: 1045.6 ± 21 J/K/mol
